Source: patent US20210300932A1, “CYCLIC PEPTIDES TARGETING ALPHA-4-BETA-7 INTEGRIN” (Zealand Pharma A/S, priority 2015, published 2021)

Experiments:
[1] = Plasma protein binding determination, equilibrium dialysis, mouse plasma; settings: first table
Experimental: (§2) An equilibrium dialysis (HTDialysis) method was used employing 50% plasma collected from CD-1 mice or Sprague-Dawley rats and incubated with K2EDTA. Test articles were assessed at 1 microM concentration in three replicates. Incubation time as 5 hours and plasma and buffer standards were assessed using LC/MS/MS. Percentage recovery was calculated as (Cbuffer+Cplasma)/[average]Cinitial, [average]Cinitial being measured in triplicate from the test samples prior to dialysis. Percentage of compound unbound was calculated as Cbuffer/Cplasma.

Aqueous solubility assay = type: physicochemical; settings: PBS pH 7.4, four hours, room temperature
Experimental: Solutions were incubated for four hours at room temperature and stirred at 600 rpm and run in triplicate. Centrifugation was performed for 15 minutes at 6000 rpm and solution concentration was determined using HPLC-UV (photodiode array detector acquiring between 220 nm, and 300 nm wavelengths).

in vivo = settings: male, CD-1, mouse, po, 48 mg/kg
Experimental: In Vivo Pharmacokinetic Assessments in Rodents
Oral bioavailability of test compounds was conducted by assessing plasma exposure of following one or two oral doses in mice and, in some cases, comparing said plasma exposure with that following a single intravenous dose of the same compound.
Body weights were recorded on the day of dosing.
Food restriction: Animals dosed p.o. were deprived of food overnight and fed ˜2 h following dosing.
Dosing: The formulation containing the test compound were administered p.o. by gavage with disposable feeding needles.
Sample collection: Terminal blood and tissue samples were collected under O2/CO2 anesthesia by cardiac puncture.
Sample processing/storage: All blood samples were transferred into K2EDTA tubes on wet ice and centrifuged within 5 min (3200×g for 5 min at 4° C.) to obtain plasma. Samples were stored frozen at −80° C. until bioanalysis.
Bioanalytical Method Qualification and Sample Analysis:
Instrumentation: AB Sciex API 4000 Q-TRAP MS/MS system equipped with an Agilent LC system with a binary pump, a solvent degasser, a thermostatted column compartment, a CTC autosampler and a divert valve installed between the column and mass spectrometer inlet.

in vitro = settings: Control buffer/Buffer at 0.1 uM % Recovery
Experimental: as §2

[2] = system: integrin alpha-4-beta-7-expressing T lymphocytes; test: In vivo T lymphocyte trafficking analyses in DSS-treated mice; parameters: species or system C57BI/6 mice
Experimental: In Vivo T Lymphocyte Trafficking Analyses
(§1) Animals. Female C57BI/6 mice (Charles River, St-Constant, Qc), weighting 16-19 g at delivery were used for this study. Following arrival in the animal facility, all animals were subjected to a general health evaluation. An acclimation period of 7-14 days was allowed before the beginning of the study.
Administration of DSS. Dextran sulfate sodium (DSS) was administered to C57B1/6 mice through addition to their drinking water at 2-3%. Mice accessed the DSS-treated water ad libitum over a 5-day period. Body weight and disease activity index (“DAI”) were measured on Day 5 in order to distribute DSS-treated animals in two uniform groups prior to dosing. Specific symptoms associated with colitis were scored based on the severity of each particular symptoms: 1—blood in stool (negative hemoccult, positive hemoccult, blood traces in stool visible, rectal bleeding); 2—stool consistency (normal, soft but still formed, very soft, diarrhea); 3—posture and fur (normal; ruffled fur; ruffled fur combined to slight hunched posture and slight dehydration; ruffled fur combined to hunched posture, dehydration and altered walking; moribund (euthanasia is mandatory before the animal reach this point). The overall DAI score was the sum of the three parameters (maximum score of 9). DAI assessment was performed on Day 5 only (prior to dosing). […]

plasma proteins = test: Plasma protein binding determination, equilibrium dialysis, mouse plasma; settings: CD-1, mouse, % recovery, Mouse plasma, equilibrium dialysis
Experimental: as §2

[3] = system: DSS experimental model of ulcerative colitis; test: 8-Day efficacy study in DSS model (therapeutic); type: in vivo, C57BI/6 mice; settings: for reduction of lesion length vs vehicle group / reduction of DAI score on Day 8 vs DSS+vehicle: Day 5 to Day 8
Source text: The STDs in ascending order bracketing the study samples and dosing solutions • 1. The study samples • 2.
Description of Tested Compounds
as §1
Oral dosing of the test article and the vehicle. From Day 5 to Day 8, nacellins and the vehicle were administered as a single slow bolus (over approximately 5 seconds) via oral route (p.o.), according to the procedure of administration of solution by gavage: the animal was firmly restrained. A bulb-tipped gastric gavage needle of 22G was passed through the side of the mouth and was advanced towards the oesophagus. The test articles and the vehicle were dosed orally at 5 mL/kg.
Intraperitoneal dosing of the test articles and the vehicle. On day 5, DATK32 antibody was administered in only on Day 5, as a single slow bolus (over approximately 5 seconds) via the i.p. route. […] Intraperitoneal administration was performed accordingly to the following procedure: the mouse was restrained manually and held with the head and body tilted downward. The tip of the needle (27 G) was inserted through the skin and just past the abdominal wall. A short pull back of the plunger of the syringe was done prior to administration of the solution to make sure that the syringe was not inserted in any abdominal organ (fluid would be pulled back into the syringe in this case).
Inflammation Score. Once the mouse was euthanized, the colon was collected and its length was measured. Lesion length was also measured. Colon inflammation was scored based on severity of oedema and ulceration.
Disease Activity Index (DAI) assessment. Body weight and DAI were measured on Day 5 in order to distribute DSS-treated animals in two uniform groups prior dosing. Specific symptoms associated to UC were scored based on the severity of each particular symptoms: 1—blood in stool (negative hemoccult, positive hemoccult, blood traces in stool visible, rectal bleeding); 2—stool consistency (normal, soft but still formed, very soft, diarrhea); 3—posture and fur (normal; ruffled fur; ruffled fur combined to slight hunched posture and slight dehydration; ruffled fur combined to hunched posture, dehydration and altered walking; moribund (euthanasia is mandatory before the animal reach this point). The overall DAI score was the sum of the three parameters (maximum score 9). Body weight measurement and DAI assessment were performed also on Day 8 to evaluate the effect of the treatments.
Collection of samples. On Day 8, five hours after ET02451-01, ET02452-01 and vehicle dosing, the animals were euthanized by cardiac puncture under general anesthesia, according to the “Guide to the Care and Use of Experimental Animals” published by the CCAC. Blood was transferred in a Sarstedt tube containing EDTA. Mesenteric and peripheral (inguinal, auxiliary and brachial) lymph nodes were collected and transferred on ice in corresponding tubes containing cold PBS. Nodes were kept on ice until tissue preparation.
Cell population labeling. Blood was withdrawn by cardiac puncture and collected on EDTA-coated tubes. Mensenteric lymph nodes (MLN) and peripheral lymph nodes (PLN) were also collected. Mononuclear cells from the tissues will be isolated using density gradient (Lympholyte) and they were stained with fluorescent antibodies. […] After washes, cells were fixed using BD Fix Solution. Percentage of different subpopulations of T lymphocytes were then analysed using FACSCalibur cytometer. Antibodies employed were the same as listed for the single-dose PD studies above.

In the case of `CC(C)C[C@@H]1NC(=O)[C@H](Cc2c[nH]c3ccccc23)NC(=O)[C@@H]2CCCN2[C@H](C(=O)NC(C)(C)C)[C@H](C)NC(=O)[C@H]([C@@H](C)O)NC(=O)[C@H](CC(=O)O)NC1=O` [ET00762], the “Control buffer/Buffer at 0.1 uM Cdonor/Creciever” value (shortened to “Control buffer/Buffer”) [1] is reported as 79%.
For `CC(C)C[C@@H]1NC(=O)[C@@H](Cc2ccc(O)cc2)NC(=O)[C@@H]2CCCN2[C@H](C(=O)NC(C)(C)C)[C@H](C)NC(=O)[C@H]([C@@H](C)O)NC(=O)[C@H](CC(=O)O)NC1=O` [Compound No. 42], the “Determined Concentration Rep 2” value (Aqueous solubility assay) was 960.0 µM.
With `CC(C)C[C@@H]1NC(=O)[C@@H](Cc2ccncc2)NC(=O)[C@@H]2CCCN2[C@H](C(=O)NC(C)(C)C)[C@H](C)NC(=O)[C@H]([C@@H](C)O)NC(=O)[C@H](CC(=O)O)NC1=O` [Compound No. 62] the “Determined Concentration Rep 2” value (Aqueous solubility assay) was 988.2 µM.
In the case of `CC(C)C[C@@H]1NC(=O)[C@H](Cc2ccccc2)NC(=O)[C@@H]2CCCN2[C@H](C(=O)NC(C)(C)C)[C@H](C)NC(=O)[C@H]([C@@H](C)O)NC(=O)[C@H](CC(=O)O)NC1=O` [Compound No. 5], the Cmax (in vivo) is reported as ~1600 ng/mL, the recovery at 5 hours, 0.1 uM (in vitro) is reported as 108% and the “homing to the MLN” value ([2]; single oral dose 100 mg/kg) is reported as “significant reduction of homing”. For the same molecule, the recovery at 5 hours, 1 microM (plasma proteins; first table) was 130%, the recovery at 5 hours, 1 microM (plasma proteins; second table) was 97% and the “Control buffer/Buffer” value [1] was 80%.
For `CC(C)C[C@@H]1NC(=O)c2ccc(-c3ccnc4ccccc34)c(c2)CNC(=O)[C@@H]2CCCN2[C@H](C(=O)NC(C)(C)C)[C@H](C)NC(=O)[C@H]([C@@H](C)O)NC(=O)[C@H](CC(=O)O)NC1=O` [Compound No. 341], the “reduction of lesion length vs vehicle group” value ([3]; 40 mg/kg p.o.) was 53%, the “reduction of DAI score on Day 8 vs DSS+vehicle” value ([3]; 40 mg/kg p.o., b.i.d.) was “did not have any beneficial effect” and the “CD3+CD4+α4β7+ cell population in mesenteric lymph nodes” value ([3]; 65 mg/kg i.p.) was “significant decrease”. For the same molecule, the “reduction of colon inflammation score vs vehicle” value ([3]; 65 mg/kg i.p.) was 39%, the “reduction of DAI score on Day 8 vs DSS+vehicle” value ([3]; 65 mg/kg i.p.) was 46% and the “reduction of lesion length vs vehicle group” value ([3]; 65 mg/kg i.p.) was 20%.
With `CC(C)C[C@@H]1NC(=O)CN(C)C(=O)[C@H](Cc2ccc(O)cc2)NC(=O)[C@@H]2CCCN2[C@H](C(=O)NC(C)(C)C)[C@H](C)NC(=O)[C@H]([C@@H](C)O)NC(=O)[C@H](CC(=O)O)NC1=O` [Compound No. 105] the “homing to the MLN” value ([2]; single oral dose 200 mg/kg) was “significant and robust attenuation of homing”.
For `CC(C)NCC(O)COc1cccc2ccccc12` (stereo not drawn) [Propranalol, propranolol, reference compound], the “% unbound (Cbuffer/Cplasma) 1” value ([1]; Mouse plasma, 1 microM, replicate 1) was 22.8%.
For `CC(C)C[C@@H]1NC(=O)C2(CCCC2)NC(=O)[C@@H]2CCCN2[C@H](C(=O)NC(C)(C)C)[C@H](C)NC(=O)[C@H]([C@@H](C)O)NC(=O)[C@H](CC(=O)O)NC1=O` [Compound No. 88], the “Determined Concentration Rep 3” value (Aqueous solubility assay) was 934.8 µM.
In the case of `CC(C)C[C@@H]1NC(=O)[C@H](Cc2ccc(-c3ccccc3)cc2)NC(=O)[C@@H]2CCCN2[C@H](C(=O)NC(C)(C)C)[C@H](C)NC(=O)[C@H]([C@@H](C)O)NC(=O)[C@H](CC(=O)O)NC1=O` [Compound No. 12], the recovery at 5 hours, 0.1 uM (in vitro) is reported as 128%, the recovery at 5 hours, 1 microM (plasma proteins; second table) is reported as 89% and the “Control buffer/Buffer” value [1] is reported as 94%.
